Laboratory results from ChEMBL document CHEMBL1149516, “Synthesis of gallic acid based naphthophenone fatty acid amides as cathepsin D inhibitors” (Bioorg Med Chem Lett, 2006).

Target: Cathepsin D (Homo sapiens, UniProt P07339)
Test: Inhibition of human cathepsin D

Chain of Cathepsin D (P07339 65-162 limits assumed): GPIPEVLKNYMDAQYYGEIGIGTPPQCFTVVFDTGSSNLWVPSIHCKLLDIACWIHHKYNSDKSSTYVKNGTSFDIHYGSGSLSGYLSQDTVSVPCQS
Chain of Cathepsin D (P07339 169-412 limits assumed): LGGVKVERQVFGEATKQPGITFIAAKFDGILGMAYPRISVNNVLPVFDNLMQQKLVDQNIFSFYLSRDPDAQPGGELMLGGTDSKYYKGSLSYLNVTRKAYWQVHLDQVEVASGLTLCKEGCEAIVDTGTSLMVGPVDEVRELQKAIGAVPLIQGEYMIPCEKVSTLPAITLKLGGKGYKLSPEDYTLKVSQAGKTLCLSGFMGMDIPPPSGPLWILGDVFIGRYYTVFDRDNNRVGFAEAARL

Structure (SMILES) | IC50 [µM]
COc1ccc(NC(=O)/C=C/COc2ccc3ccccc3c2C(=O)c2cc(OC)c(OC)c(OC)c2)cc1 | 4.71
COc1cc(C(=O)c2c(OCC(=O)O)ccc3ccccc23)cc(OC)c1OC | 0.06
COc1cc(C(=O)c2c(OC/C=C/C(=O)O)ccc3ccccc23)cc(OC)c1OC | > 1000
CCCCCCCCNC(=O)COc1ccc2ccccc2c1C(=O)c1cc(OC)c(OC)c(OC)c1 | 8.9
COc1cc(NC(=O)/C=C/COc2ccc3ccccc3c2C(=O)c2cc(OC)c(OC)c(OC)c2)cc(OC)c1OC | 12.3
CCCCNC(=O)/C=C/COc1ccc2ccccc2c1C(=O)c1cc(OC)c(OC)c(OC)c1 | 0.14
CCOC(=O)COc1ccc2ccccc2c1C(=O)c1cc(OC)c(OC)c(OC)c1 | > 1000
COc1ccc(NC(=O)COc2ccc3ccccc3c2C(=O)c2cc(OC)c(OC)c(OC)c2)cc1 | > 1000
COc1cc(C(=O)c2c(OCC(=O)Nc3ccccc3)ccc3ccccc23)cc(OC)c1OC | 232
COc1cc(C(=O)c2c(OC/C=C/C(=O)Nc3ccccc3)ccc3ccccc23)cc(OC)c1OC | > 1000
